Consider one compound from article PMC6048161, “Inward-facing conformation of L-ascorbate transporter suggests an elevator mechanism” (Cell Discovery, 2018).

Experiment [1] has as its target T1, ecUlaA (Escherichia coli, UniProt P39301, T86P).
T1 construct: gene ulaA; homologue genes cloned in pET21b with C-terminal His8, E. coli C43(DE3)
The experiment in a line: isothermal titration calorimetry. The format is binding. For orientation: ITC needs no label: the signal is the heat of the interaction.

For experiment [2], the target named is T2, ecUlaA (Escherichia coli, UniProt P39301).
T2 construct: gene ulaA; homologue genes cloned in pET21b with C-terminal His8, E. coli C43(DE3)
The experiment in a line: isothermal titration calorimetry. To be noted: ITC performed as in ref. 11; detergent-purified protein; read-out: binding affinity; cited from earlier work.

As for `O=C1O[C@H]([C@@H](O)CO)C(O)=C1O` [vitamin C], the Kd at ecUlaA [1] is approximately 26.5 µM; at ecUlaA [2] it was 6.1 ± 0.9 µM.
